How the values were obtained:
green foxtail [1] = assay: Test Example 5: herbicidal effect by foliage application, plastic box (Table 20, symbol G); assay type: in vivo, green foxtail (Setaria viridis); conditions: foliage application, 320 g/ha, evaluated three weeks after application
Method in brief: (§1)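 Plants were sown into sterilized diluvial soil under about 1.5 cm cover and kept in a greenhouse at 25° C. to 30° C. Fourteen days on, foliage received an even spray of the diluted emulsion. Herbicidal or crop effect was judged three weeks afterwards.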

lambsquarters [2] = assay: Test Example 4: herbicidal effect by soil treatment (Table 19, symbol O); assay type: in vivo, lambsquarters (Chenopodium album); conditions: amount of applied herbicide 320 g/ha
Method in brief: (§2)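 Pre-emergence style soil spray: seeds under ~1.5 cm sterilized diluvial soil received a uniform coat of emulsion diluted to the predetermined herbicide amount. Greenhouse 25–30° C; readout at week three on previously defined criteria.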

wild oat [3] = assay: Test Example 4: herbicidal effect by soil treatment (Table 19, symbol I); assay type: in vivo, wild oat (Avena fatua); conditions: amount of applied herbicide 320 g/ha
Method in brief: as §2

blackgrass [4] = assay: Test Example 4: herbicidal effect by soil treatment (Table 19, symbol J); assay type: in vivo, blackgrass (Alopecurus myosuroides); conditions: amount of applied herbicide 320 g/ha
Method in brief: as §2

chickweed = assay: Test Example 5: herbicidal effect by foliage application, plastic box (Table 20, symbol P); assay type: in vivo, common chickweed (Stellaria media); conditions: foliage application, 320 g/ha, evaluated three weeks after application
Method in brief: as §1

rice flat sedge = assay: Test Example 3: herbicidal effect by foliage application, Wagner pot (Table 18, symbol E); assay type: in vivo, rice flat sedge (Cyperus iria); conditions: amount of applied herbicide 320 g/ha
Method in brief: (§3)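 Plants were sown in alluvial soil held under 0.1–0.5 cm standing water and grown 14 days in a greenhouse at 25–30 °C. An emulsifiable formulation, water-diluted to the set dose, was then sprayed onto the foliage, and effects were scored three weeks later using previously defined criteria.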

barnyard grass [5] = assay: Test Example 5: herbicidal effect by foliage application, plastic box (Table 20, symbol H); assay type: in vivo, barnyard grass (Echinochloa crus-galli); conditions: foliage application, 320 g/ha, evaluated three weeks after application
Method in brief: as §1

wild oat [6] = assay: Test Example 5: herbicidal effect by foliage application, plastic box (Table 20, symbol I); assay type: in vivo, wild oat (Avena fatua); conditions: foliage application, 320 g/ha, evaluated three weeks after application
Method in brief: as §1

barnyard grass [7] = assay: Test Example 4: herbicidal effect by soil treatment (Table 19, symbol H); assay type: in vivo, barnyard grass (Echinochloa crus-galli); conditions: amount of applied herbicide 320 g/ha
Method in brief: as §2

velvetleaf [8] = assay: Test Example 4: herbicidal effect by soil treatment (Table 19, symbol M); assay type: in vivo, velvetleaf (Abutilon theophrasti); conditions: amount of applied herbicide 320 g/ha
Method in brief: as §2

blackgrass [9] = assay: Test Example 5: herbicidal effect by foliage application, plastic box (Table 20, symbol J); assay type: in vivo, blackgrass (Alopecurus myosuroides); conditions: foliage application, 320 g/ha, evaluated three weeks after application
Method in brief: as §1

redroot pigweed [10] = assay: Test Example 4: herbicidal effect by soil treatment (Table 19, symbol N); assay type: in vivo, redroot pigweed (Amaranthus retroflexus); conditions: amount of applied herbicide 320 g/ha
Method in brief: as §2

persian speedwell [11] = assay: Test Example 4: herbicidal effect by soil treatment (Table 19, symbol R); assay type: in vivo, Persian speedwell (Veronica persica); conditions: amount of applied herbicide 320 g/ha
Method in brief: as §2

lambsquarters [12] = assay: Test Example 5: herbicidal effect by foliage application, plastic box (Table 20, symbol O); assay type: in vivo, lambsquarters (Chenopodium album); conditions: foliage application, 320 g/ha, evaluated three weeks after application
Method in brief: as §1

Italian ryegrass [13] = assay: Test Example 5: herbicidal effect by foliage application, plastic box (Table 20, symbol K); assay type: in vivo, Italian ryegrass (Lolium multiflorum); conditions: foliage application, 320 g/ha, evaluated three weeks after application
Method in brief: as §1

velvetleaf [14] = assay: Test Example 5: herbicidal effect by foliage application, plastic box (Table 20, symbol M); assay type: in vivo, velvetleaf (Abutilon theophrasti); conditions: foliage application, 320 g/ha, evaluated three weeks after application
Method in brief: as §1

barnyard grass [15] = assay: Test Example 3: herbicidal effect by foliage application, Wagner pot (Table 18, symbol H); assay type: in vivo, barnyard grass (Echinochloa crus-galli); conditions: amount of applied herbicide 320 g/ha
Method in brief: as §3

windgrass [16] = assay: Test Example 5: herbicidal effect by foliage application, plastic box (Table 20, symbol L); assay type: in vivo, windgrass (Apera spica-venti); conditions: foliage application, 320 g/ha, evaluated three weeks after application
Method in brief: as §1

redroot pigweed [17] = assay: Test Example 5: herbicidal effect by foliage application, plastic box (Table 20, symbol N); assay type: in vivo, redroot pigweed (Amaranthus retroflexus); conditions: foliage application, 320 g/ha, evaluated three weeks after application
Method in brief: as §1

southern crabgrass [18] = assay: Test Example 5: herbicidal effect by foliage application, plastic box (Table 20, symbol F); assay type: in vivo, southern crabgrass (Digitaria ciliaris); conditions: foliage application, 320 g/ha, evaluated three weeks after application
Method in brief: as §1

green foxtail [19] = assay: Test Example 4: herbicidal effect by soil treatment (Table 19, symbol G); assay type: in vivo, green foxtail (Setaria viridis); conditions: amount of applied herbicide 320 g/ha
Method in brief: as §2

windgrass [20] = assay: Test Example 4: herbicidal effect by soil treatment (Table 19, symbol L); assay type: in vivo, windgrass (Apera spica-venti); conditions: amount of applied herbicide 320 g/ha
Method in brief: as §2

Italian ryegrass [21] = assay: Test Example 4: herbicidal effect by soil treatment (Table 19, symbol K); assay type: in vivo, Italian ryegrass (Lolium multiflorum); conditions: amount of applied herbicide 320 g/ha
Method in brief: as §2

southern crabgrass [22] = assay: Test Example 4: herbicidal effect by soil treatment (Table 19, symbol F); assay type: in vivo, southern crabgrass (Digitaria ciliaris); conditions: amount of applied herbicide 320 g/ha
Method in brief: as §2

persian speedwell [23] = assay: Test Example 5: herbicidal effect by foliage application, plastic box (Table 20, symbol R); assay type: in vivo, Persian speedwell (Veronica persica); conditions: foliage application, 320 g/ha, evaluated three weeks after application
Method in brief: as §1

Chinese sprangletop = assay: Test Example 3: herbicidal effect by foliage application, Wagner pot (Table 18, symbol D); assay type: in vivo, chinese sprangletop (Leptochloa chinensis); conditions: amount of applied herbicide 320 g/ha
Method in brief: as §3

CCCC(=O)Oc1c(C)nn(C)c(=O)c1-c1c(-c2cccc(OC(C)C)c2)sc2ccc(F)cc12 [2-216]
herbicidal effect on G: green foxtail (criteria 0-5) (green foxtail [1]): 5 (Herbicidal rate of 90% or more (almost completely withered)) | O: lambsquarters, herbicidal effect rating (lambsquarters [2]): 0 (Herbicidal rate of 5% or less (almost no effect)) | I: wild oat, herbicidal effect rating (wild oat [3]): 0 (Herbicidal rate of 5% or less (almost no effect)) | J: blackgrass, herbicidal effect rating (blackgrass [4]): 0 (Herbicidal rate of 5% or less (almost no effect)) | herbicidal effect on P: chickweed (criteria 0-5) (chickweed): 5 (Herbicidal rate of 90% or more (almost completely withered)) | herbicidal effect on E: rice flat sedge (rice flat sedge): 4 (Herbicidal rate of 70% or more and less than 90%) | herbicidal effect on H: barnyard grass (criteria 0-5) (barnyard grass [5]): 4 (Herbicidal rate of 70% or more and less than 90%) | herbicidal effect on I: wild oat (criteria 0-5) (wild oat [6]): 0 (Herbicidal rate of 5% or less (almost no effect)) | H: barnyard grass, herbicidal effect rating (barnyard grass [7]): 2 (Herbicidal rate of 20% or more and less than 40%) | M: velvetleaf, herbicidal effect rating (velvetleaf [8]): 2 (Herbicidal rate of 20% or more and less than 40%) | herbicidal effect on J: blackgrass (criteria 0-5) (blackgrass [9]): 0 (Herbicidal rate of 5% or less (almost no effect)) | N: redroot pigweed, herbicidal effect rating (redroot pigweed [10]): 3 (Herbicidal rate of 40% or more and less than 70%) | R: persian speedwell, herbicidal effect rating (persian speedwell [11]): 5 (Herbicidal rate of 90% or more (almost completely withered)) | herbicidal effect on O: lambsquarters (criteria 0-5) (lambsquarters [12]): 3 (Herbicidal rate of 40% or more and less than 70%) | herbicidal effect on K: Italian ryegrass (criteria 0-5) (Italian ryegrass [13]): 4 (Herbicidal rate of 70% or more and less than 90%) | herbicidal effect on M: velvetleaf (criteria 0-5) (velvetleaf [14]): 3 (Herbicidal rate of 40% or more and less than 70%) | herbicidal effect on H: barnyard grass (barnyard grass [15]): 5 (Herbicidal rate of 90% or more (almost completely withered)) | herbicidal effect on L: windgrass (criteria 0-5) (windgrass [16]): 3 (Herbicidal rate of 40% or more and less than 70%) | herbicidal effect on N: redroot pigweed (criteria 0-5) (redroot pigweed [17]): 5 (Herbicidal rate of 90% or more (almost completely withered)) | herbicidal effect on F: southern crabgrass (criteria 0-5) (southern crabgrass [18]): 5 (Herbicidal rate of 90% or more (almost completely withered)) | G: green foxtail, herbicidal effect rating (green foxtail [19]): 2 (Herbicidal rate of 20% or more and less than 40%) | L: windgrass, herbicidal effect rating (windgrass [20]): 0 (Herbicidal rate of 5% or less (almost no effect)) | K: Italian ryegrass, herbicidal effect rating (Italian ryegrass [21]): 4 (Herbicidal rate of 70% or more and less than 90%) | F: southern crabgrass, herbicidal effect rating (southern crabgrass [22]): 3 (Herbicidal rate of 40% or more and less than 70%) | herbicidal effect on R: persian speedwell (criteria 0-5) (persian speedwell [23]): 5 (Herbicidal rate of 90% or more (almost completely withered)) | herbicidal effect on D: Chinese sprangletop (Chinese sprangletop): 3 (Herbicidal rate of 40% or more and less than 70%)

From patent publication US20230085307A1, “PYRIDAZINONE COMPOUND AND HERBICIDE” (NISSAN CHEMICAL CORPORATION, priority 2019, published 2023)
